Measured values taken from US9850283B2, “Macrocyclic inhibitors of the PD-1/PD-L1 and CD80(B7-1)/PD-L1 protein/protein interactions” (BRISTOL-MYERS SQUIBB COMPANY, priority 2013, dated 2017).
Like-named read-outs stand apart in the source and are kept apart here. Positions of bridges follow the written chain, without caps; N, C: chain ends. Non-standard residues stand in square brackets, D forms with d. Residues, ends and D or L forms follow the SMILES beside them. Phe(3-CF3) = N[C@@H](Cc1cccc(C(F)(F)F)c1)C(=O)O; Phe(2,4-Cl2) = N[C@@H](Cc1ccc(Cl)cc1Cl)C(=O)O; Bip = N[C@@H](Cc1ccc(-c2ccccc2)cc1)C(=O)O; Phe(3-OMe) = COc1cccc(C[C@H](N)C(=O)O)c1; NMeF = CN[C@@H](Cc1ccccc1)C(=O)O; NMeNle = CCCC[C@H](NC)C(=O)O; dNMeA = CN[C@H](C)C(=O)O; Sar = CNCC(=O)O

How the values were obtained:
[1] = target: T1, LK35.2-hPD-L1 cells / PE-labeled PD-1-Ig (Homo sapiens, UniProt Q9NZQ7); experiment: LK35.2-hPD-L1 cell binding high-content screening assay; assay type: cell-based; settings: cell binding assay, cell line not given
T1 construct: expressed in transfected cells; host or cells: LK35.2 mouse B cell line
T1 sequence (Q9NZQ7 19-290): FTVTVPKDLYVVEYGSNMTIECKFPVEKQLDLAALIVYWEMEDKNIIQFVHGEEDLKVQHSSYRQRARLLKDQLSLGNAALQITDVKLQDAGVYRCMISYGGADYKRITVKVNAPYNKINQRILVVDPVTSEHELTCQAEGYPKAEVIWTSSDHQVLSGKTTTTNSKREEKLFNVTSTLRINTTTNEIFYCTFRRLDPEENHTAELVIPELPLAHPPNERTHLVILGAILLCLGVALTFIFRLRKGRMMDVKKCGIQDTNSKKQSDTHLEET
Outline: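 Fluorescent PD-1-Ig binding to PD-L1-expressing LK35.2 cells, imaged after washing. Conditions: 1 nM PE-PD-1-Ig, 37 °C, 1 h, RPMI with 10% fetal calf serum.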

Human PD-L1/PD-1 = target: T2, Human PD-L1/PD-1 (Homo sapiens, UniProt Q9NZQ7); experiment: HTRF PD-1-Ig/PD-L1-His binding assay (human PD-L1)
T2 construct: made in house; host or cells: HEK293T
T2 sequence (Q9NZQ7 with tags, fused parts or gaps): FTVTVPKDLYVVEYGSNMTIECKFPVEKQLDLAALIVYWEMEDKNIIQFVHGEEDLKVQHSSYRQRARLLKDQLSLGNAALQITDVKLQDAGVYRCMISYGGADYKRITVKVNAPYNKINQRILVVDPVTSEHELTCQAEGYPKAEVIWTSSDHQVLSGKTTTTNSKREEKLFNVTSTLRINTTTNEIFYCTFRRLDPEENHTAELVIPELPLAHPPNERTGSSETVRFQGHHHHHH
Outline: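 HTRF read-out: Eu cryptate anti-Ig mAb 1 nM final, APC anti-His mAb 20 nM final, added over the binding reaction. Proteins were PD-1-Ig and PD-L1-His ectodomain fusions. Buffer was dPBS, 0.1% BSA, 0.05% Tween-20.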

[2] = cluster symbol, read-out: CBA IC50 cluster
[3] = cluster symbol, read-out: HTRF IC50 cluster
[4] = value given instead of cluster, read-out: CBA IC50 value
[5] = value given instead of cluster, read-out: HTRF IC50 value

Row | IC50 [1, 2] [nM] | IC50 (Human PD-L1/PD-1; [3]) [nM] | IC50 [1, 4] [nM] | IC50 (Human PD-L1/PD-1; [5]) [nM] | SMILES
1 |  |  | 149 | 40.9 | CCCC[C@H]1C(=O)N(C)CC(=O)N[C@@H](CC(=O)O)C(=O)N[C@@H](C(C)C)C(=O)N(C)[C@@H](Cc2ccccc2)C(=O)N[C@@H](Cc2ccc(O)cc2)C(=O)N(C)CC(=O)N[C@@H](Cc2cccc(C(F)(F)F)c2)C(=O)N[C@@H](Cc2ccc(O)cc2)C(=O)N[C@@H](CC(C)C)C(=O)N[C@H](C(=O)NCC(N)=O)CSCC(=O)N[C@@H](Cc2ccccc2)C(=O)N(C)[C@@H](Cc2ccccc2)C(=O)N1C [Example 3550] ({CH2CO}-F[NMeF][NMeNle][Sar]DV[NMeF]Y[Sar][Phe(3-CF3)]YLCG-NH2; thioether N-13)
2 | 4.78 to 72.9 | 6.76 to 30.3 |  |  | CCCC[C@H]1C(=O)N(C)CC(=O)N[C@@H](CC(=O)O)C(=O)N[C@@H](C(C)C)C(=O)N(C)[C@@H](Cc2ccccc2)C(=O)N[C@@H](Cc2ccc(O)cc2)C(=O)N(C)[C@H](C)C(=O)N[C@@H](Cc2c[nH]c3ccccc23)C(=O)N[C@@H](Cc2ccc(O)cc2)C(=O)N[C@@H](CC(C)C)C(=O)N[C@H](C(=O)NCC(N)=O)CSCC(=O)N[C@@H](Cc2ccccc2)C(=O)N(C)[C@@H](Cc2ccccc2)C(=O)N1C [Example 3551] ({CH2CO}-F[NMeF][NMeNle][Sar]DV[NMeF]Y[dNMeA]WYLCG-NH2; thioether N-13)
3 | 4.78 to 72.9 | 0.385 to 6.74 |  |  | CCCC[C@H]1C(=O)N[C@H](CC(=O)O)C(=O)N[C@@H](CC(=O)O)C(=O)N[C@@H](C(C)C)C(=O)N(C)[C@@H](Cc2ccccc2)C(=O)N[C@@H](Cc2ccc(O)cc2)C(=O)N(C)CC(=O)N[C@@H](Cc2c[nH]c3ccccc23)C(=O)N[C@@H](Cc2ccc(O)cc2)C(=O)N[C@@H](CC(C)C)C(=O)N[C@H](C(=O)NCC(N)=O)CSCC(=O)N[C@@H](Cc2ccccc2)C(=O)N(C)[C@@H](Cc2ccccc2)C(=O)N1C [Example 3552] (HELM PEPTIDE1{[O=C(C[*:3])[*:2]].F.[meF].[CCCC[C@@H](C(=O)[*:2])N(C)[*:1]].[dD].D.V.[meF].Y.[Sar].W.Y.L.C.G.[am]}$PEPTIDE1,PEPTIDE1,1:R3-14:R3$$$V2.0)

Continued, compound first:

Row | SMILES | IC50 [1, 2] [nM] | IC50 (Human PD-L1/PD-1; [3]) [nM] | IC50 [1, 4] [nM] | IC50 (Human PD-L1/PD-1; [5]) [nM]
4 | CCCC[C@H]1C(=O)N(C)CC(=O)N[C@@H](CC(=O)O)C(=O)N[C@@H](C(C)C)C(=O)N(C)[C@@H](Cc2ccccc2)C(=O)N[C@@H](Cc2ccc(O)cc2)C(=O)N(C)CC(=O)N[C@@H](Cc2c[nH]c3ccccc23)C(=O)N[C@@H](Cc2ccc(-c3ccccc3)cc2)C(=O)N[C@@H](CC(C)C)C(=O)N[C@H](C(=O)NCC(N)=O)CSCC(=O)N[C@@H](Cc2ccccc2)C(=O)N(C)[C@@H](Cc2ccccc2)C(=O)N1C [Example 3547] ({CH2CO}-F[NMeF][NMeNle][Sar]DV[NMeF]Y[Sar]W[Bip]LCG-NH2; thioether N-13) | > 74.3 | > 30.5 |  | 
5 | CCCC[C@H]1C(=O)N(C)CC(=O)N[C@@H](CC(=O)O)C(=O)N[C@@H](C(C)C)C(=O)N(C)[C@@H](Cc2ccccc2)C(=O)N[C@@H](Cc2ccc(O)cc2)C(=O)N(C)CC(=O)N[C@@H](Cc2cccc(OC)c2)C(=O)N[C@@H](Cc2ccc(O)cc2)C(=O)N[C@@H](CC(C)C)C(=O)N[C@H](C(=O)NCC(N)=O)CSCC(=O)N[C@@H](Cc2ccccc2)C(=O)N(C)[C@@H](Cc2ccccc2)C(=O)N1C [Example 3548] ({CH2CO}-F[NMeF][NMeNle][Sar]DV[NMeF]Y[Sar][Phe(3-OMe)]YLCG-NH2; thioether N-13) | > 74.3 | > 30.5 |  | 
6 | CCCC[C@H]1C(=O)N(C)CC(=O)N[C@@H](CC(=O)O)C(=O)N[C@@H](C(C)C)C(=O)N(C)[C@@H](Cc2ccccc2)C(=O)N[C@@H](Cc2ccc(O)cc2)C(=O)N(C)CC(=O)N[C@@H](Cc2ccc(Cl)cc2Cl)C(=O)N[C@@H](Cc2ccc(O)cc2)C(=O)N[C@@H](CC(C)C)C(=O)N[C@H](C(=O)NCC(N)=O)CSCC(=O)N[C@@H](Cc2ccccc2)C(=O)N(C)[C@@H](Cc2ccccc2)C(=O)N1C [Example 3549] ({CH2CO}-F[NMeF][NMeNle][Sar]DV[NMeF]Y[Sar][Phe(2,4-Cl2)]YLCG-NH2; thioether N-13) |  |  | 728 | 272
